From ChEMBL document CHEMBL3045475, “Sensitivity of Sclerotinia sclerotiorum from oilseed crops to boscalid in Jiangsu Province of China” (Crop Prot, 2009)
Values after ≈ are worked out from the molar mass of the structure shown.

Key:
Sclerotinia sclerotiorum [1] = test: Antifungal activity against carbendazim-resistant and dimethachlon-sensitive Sclerotinia sclerotiorum TZ83 assessed as inhibition of mycelial growth after 2 days; assay type: functional, organism-based; conditions: TZ83, 48 h
Sclerotinia sclerotiorum [2] = test: Antifungal activity against carbendazim-resistant and dimethachlon-sensitive Sclerotinia sclerotiorum YC35 assessed as inhibition of mycelial growth after 2 days; assay type: functional, organism-based; conditions: YC35, 48 h
Sclerotinia sclerotiorum [3] = test: Antifungal activity against Sclerotinia sclerotiorum in oilseed rape field assessed as disease control at 690/ha measured 1 week before harvest; assay type: functional
Sclerotinia sclerotiorum [4] = test: Antifungal activity against carbendazim-resistant and dimethachlon-resistant Sclerotinia sclerotiorum CZ57-2 assessed as inhibition of mycelial growth after 2 days; assay type: functional, organism-based; conditions: CZ57-2, 48 h
Sclerotinia sclerotiorum [5] = test: Antifungal activity against carbendazim-resistant and dimethachlon-resistant Sclerotinia sclerotiorum CZ57-3 assessed as inhibition of mycelial growth after 2 days; assay type: functional, organism-based; conditions: CZ57-3, 48 h
Sclerotinia sclerotiorum [6] = test: Antifungal activity against carbendazim-resistant and dimethachlon-resistant Sclerotinia sclerotiorum ZJ288-3 assessed as inhibition of mycelial growth after 2 days; assay type: functional, organism-based; conditions: ZJ288-3, 48 h
Sclerotinia sclerotiorum [7] = test: Antifungal activity against carbendazim-resistant and dimethachlon-resistant Sclerotinia sclerotiorum CZ57-1 assessed as inhibition of mycelial growth after 2 days; assay type: functional, organism-based; conditions: CZ57-1, 48 h
Sclerotinia sclerotiorum [8] = test: Antifungal activity against carbendazim-resistant and dimethachlon-resistant Sclerotinia sclerotiorum ZJ288-2 assessed as inhibition of mycelial growth after 2 days; assay type: functional, organism-based; conditions: ZJ288-2, 48 h
Sclerotinia sclerotiorum [9] = test: Antifungal activity against carbendazim-resistant and dimethachlon-sensitive Sclerotinia sclerotiorum SZ48 assessed as inhibition of mycelial growth after 2 days; assay type: functional, organism-based; conditions: SZ48, 48 h
Sclerotinia sclerotiorum [10] = test: Antifungal activity against carbendazim-resistant and dimethachlon-resistant Sclerotinia sclerotiorum ZJ288-1 assessed as inhibition of mycelial growth after 2 days; assay type: functional, organism-based; conditions: ZJ288-1, 48 h
Sclerotinia sclerotiorum [11] = test: Antifungal activity against carbendazim-resistant and dimethachlon-sensitive Sclerotinia sclerotiorum ZJ47 assessed as inhibition of mycelial growth after 2 days; assay type: functional, organism-based; conditions: ZJ47, 48 h
Sclerotinia sclerotiorum [12] = test: Antifungal activity against carbendazim-resistant and dimethachlon-sensitive Sclerotinia sclerotiorum ZJ44 assessed as inhibition of mycelial growth after 2 days; assay type: functional, organism-based; conditions: ZJ44, 48 h
Sclerotinia sclerotiorum [13] = test: Antifungal activity against carbendazim-resistant and dimethachlon-sensitive Sclerotinia sclerotiorum CZ57 assessed as inhibition of mycelial growth after 2 days; assay type: functional, organism-based; conditions: CZ57, 48 h
Sclerotinia sclerotiorum [14] = test: Antifungal activity against carbendazim-resistant and dimethachlon-sensitive Sclerotinia sclerotiorum ZJ288 assessed as inhibition of mycelial growth after 2 days; assay type: functional, organism-based; conditions: ZJ288, 48 h
Sclerotinia sclerotiorum [15] = test: Antifungal activity against carbendazim and dimethachlon-sensitive Sclerotinia sclerotiorum SZ47 assessed as inhibition of mycelial growth after 2 days; assay type: functional, organism-based; conditions: SZ47, 48 h
Sclerotinia sclerotiorum [16] = test: Antifungal activity against carbendazim and dimethachlon-sensitive Sclerotinia sclerotiorum SZ62 assessed as inhibition of mycelial growth after 2 days; assay type: functional, organism-based; conditions: SZ62, 48 h
Sclerotinia sclerotiorum [17] = test: Antifungal activity against carbendazim and dimethachlon-sensitive Sclerotinia sclerotiorum YZ116 assessed as inhibition of mycelial growth after 2 days; assay type: functional, organism-based; conditions: YZ116, 48 h
Sclerotinia sclerotiorum [18] = test: Antifungal activity against carbendazim and dimethachlon-sensitive Sclerotinia sclerotiorum YZ114 assessed as inhibition of mycelial growth after 2 days; assay type: functional, organism-based; conditions: YZ114, 48 h
Sclerotinia sclerotiorum [19] = test: Antifungal activity against carbendazim and dimethachlon-sensitive Sclerotinia sclerotiorum YZ112 assessed as inhibition of mycelial growth after 2 days; assay type: functional, organism-based; conditions: YZ112, 48 h
Sclerotinia sclerotiorum [20] = test: Antifungal activity against Sclerotinia sclerotiorum in oilseed rape field assessed as disease control at 750/ha measured 1 week before harvest; assay type: functional
Sclerotinia sclerotiorum [21] = test: Antifungal activity against Sclerotinia sclerotiorum in oilseed rape field assessed as disease control at 250/ha measured 1 week before harvest; assay type: functional
Sclerotinia sclerotiorum [22] = test: Antifungal activity against Sclerotinia sclerotiorum in oilseed rape field assessed as disease control at 125/ha measured 1 week before harvest; assay type: functional
Sclerotinia sclerotiorum [23] = test: Antifungal activity against Sclerotinia sclerotiorum in oilseed rape field assessed as disease control at 187.5/ha measured 1 week before harvest; assay type: functional
Sclerotinia sclerotiorum [24] = test: Antifungal activity against Sclerotinia sclerotiorum in oilseed rape field assessed as disease control at 80/ha measured 1 week before harvest; assay type: functional
Sclerotinia sclerotiorum [25] = test: Antifungal activity against Sclerotinia sclerotiorum in synthetic medium assessed as inhibition of mycelial growth after 2 days; assay type: functional, organism-based; conditions: 48 h
Sclerotinia sclerotiorum [26] = test: Antifungal activity against Sclerotinia sclerotiorum in czapek medium assessed as inhibition of mycelial growth after 2 days; assay type: functional, organism-based; conditions: 48 h
Sclerotinia sclerotiorum [27] = test: Antifungal activity against Sclerotinia sclerotiorum in PDA plates assessed as inhibition of mycelial growth after 2 days; assay type: functional, organism-based; conditions: 48 h

Compound: O=C1CCC(=O)N1c1cc(Cl)cc(Cl)c1 [DIMETHACHLON]
- EC50 (Sclerotinia sclerotiorum [1]): 0.335 µg/mL (≈ 1.37 µM)
- EC50 (Sclerotinia sclerotiorum [2]): 0.306 µg/mL (≈ 1.25 µM)
- Activity (Sclerotinia sclerotiorum [3]): 44.6%
- EC50 (Sclerotinia sclerotiorum [4]): 152 µg/mL (≈ 622 µM)
- EC50 (Sclerotinia sclerotiorum [5]): 125 µg/mL (≈ 511 µM)
- EC50 (Sclerotinia sclerotiorum [6]): 68 µg/mL (≈ 279 µM)
- EC50 (Sclerotinia sclerotiorum [7]): 166 µg/mL (≈ 682 µM)
- EC50 (Sclerotinia sclerotiorum [8]): 86.8 µg/mL (≈ 356 µM)
- EC50 (Sclerotinia sclerotiorum [9]): 0.364 µg/mL (≈ 1.49 µM)
- EC50 (Sclerotinia sclerotiorum [10]): 92.4 µg/mL (≈ 378 µM)
- EC50 (Sclerotinia sclerotiorum [11]): 0.367 µg/mL (≈ 1.5 µM)
- EC50 (Sclerotinia sclerotiorum [12]): 0.317 µg/mL (≈ 1.3 µM)
- EC50 (Sclerotinia sclerotiorum [13]): 0.406 µg/mL (≈ 1.66 µM)
- EC50 (Sclerotinia sclerotiorum [14]): 0.397 µg/mL (≈ 1.63 µM)
- EC50 (Sclerotinia sclerotiorum [15]): 0.321 µg/mL (≈ 1.32 µM)
- EC50 (Sclerotinia sclerotiorum [16]): 0.351 µg/mL (≈ 1.44 µM)
- EC50 (Sclerotinia sclerotiorum [17]): 0.346 µg/mL (≈ 1.42 µM)
- EC50 (Sclerotinia sclerotiorum [18]): 0.365 µg/mL (≈ 1.5 µM)
- EC50 (Sclerotinia sclerotiorum [19]): 0.401 µg/mL (≈ 1.64 µM)

Compound: COC(=O)Nc1nc2ccccc2[nH]1 [CARBENDAZIM]
- EC50 (Sclerotinia sclerotiorum [1]): > 100 µg/mL
- EC50 (Sclerotinia sclerotiorum [2]): > 100 µg/mL
- Activity (Sclerotinia sclerotiorum [20]): 18.9%
- EC50 (Sclerotinia sclerotiorum [4]): > 100 µg/mL
- EC50 (Sclerotinia sclerotiorum [5]): > 100 µg/mL
- EC50 (Sclerotinia sclerotiorum [6]): > 100 µg/mL
- EC50 (Sclerotinia sclerotiorum [7]): > 100 µg/mL
- EC50 (Sclerotinia sclerotiorum [8]): > 100 µg/mL
- EC50 (Sclerotinia sclerotiorum [9]): > 100 µg/mL
- EC50 (Sclerotinia sclerotiorum [10]): > 100 µg/mL
- EC50 (Sclerotinia sclerotiorum [11]): > 100 µg/mL
- EC50 (Sclerotinia sclerotiorum [12]): > 100 µg/mL
- EC50 (Sclerotinia sclerotiorum [13]): 0.168 µg/mL (≈ 0.879 µM)
- EC50 (Sclerotinia sclerotiorum [14]): 0.147 µg/mL (≈ 0.769 µM)
- EC50 (Sclerotinia sclerotiorum [15]): 0.177 µg/mL (≈ 0.926 µM)
- EC50 (Sclerotinia sclerotiorum [16]): 0.186 µg/mL (≈ 0.973 µM)
- EC50 (Sclerotinia sclerotiorum [17]): 0.137 µg/mL (≈ 0.717 µM)
- EC50 (Sclerotinia sclerotiorum [18]): 0.134 µg/mL (≈ 0.701 µM)
- EC50 (Sclerotinia sclerotiorum [19]): 0.106 µg/mL (≈ 0.554 µM)

Compound: O=C(Nc1ccccc1-c1ccc(Cl)cc1)c1cccnc1Cl [BOSCALID]
- EC50 (Sclerotinia sclerotiorum [1]): 0.19 µg/mL (≈ 0.554 µM)
- EC50 (Sclerotinia sclerotiorum [2]): 0.195 µg/mL (≈ 0.568 µM)
- Activity (Sclerotinia sclerotiorum [21]): 75.1%
- Activity (Sclerotinia sclerotiorum [22]): 65.2%
- Activity (Sclerotinia sclerotiorum [23]): 69%
- Activity (Sclerotinia sclerotiorum [24]): 49.7%
- EC50 (Sclerotinia sclerotiorum [25]): 0.12 µg/mL (≈ 0.35 µM)
- EC50 (Sclerotinia sclerotiorum [26]): 0.13 µg/mL (≈ 0.379 µM)
- EC50 (Sclerotinia sclerotiorum [27]): 0.17 µg/mL (≈ 0.495 µM)
- EC50 (Sclerotinia sclerotiorum [4]): 0.183 µg/mL (≈ 0.533 µM)
- EC50 (Sclerotinia sclerotiorum [5]): 0.163 µg/mL (≈ 0.475 µM)
- EC50 (Sclerotinia sclerotiorum [6]): 0.262 µg/mL (≈ 0.763 µM)
- EC50 (Sclerotinia sclerotiorum [7]): 0.115 µg/mL (≈ 0.335 µM)
- EC50 (Sclerotinia sclerotiorum [8]): 0.126 µg/mL (≈ 0.367 µM)
- EC50 (Sclerotinia sclerotiorum [9]): 0.168 µg/mL (≈ 0.489 µM)
- EC50 (Sclerotinia sclerotiorum [10]): 0.195 µg/mL (≈ 0.568 µM)
- EC50 (Sclerotinia sclerotiorum [11]): 0.188 µg/mL (≈ 0.548 µM)
- EC50 (Sclerotinia sclerotiorum [12]): 0.223 µg/mL (≈ 0.65 µM)
- EC50 (Sclerotinia sclerotiorum [13]): 0.186 µg/mL (≈ 0.542 µM)
- EC50 (Sclerotinia sclerotiorum [14]): 0.18 µg/mL (≈ 0.524 µM)
- EC50 (Sclerotinia sclerotiorum [15]): 0.181 µg/mL (≈ 0.527 µM)
- EC50 (Sclerotinia sclerotiorum [16]): 0.17 µg/mL (≈ 0.495 µM)
- EC50 (Sclerotinia sclerotiorum [17]): 0.195 µg/mL (≈ 0.568 µM)
- EC50 (Sclerotinia sclerotiorum [18]): 0.195 µg/mL (≈ 0.568 µM)
- EC50 (Sclerotinia sclerotiorum [19]): 0.211 µg/mL (≈ 0.615 µM)
